Measured values: the NIST ThermoML archive (doi:10.1016/j.jct.2008.07.002)
± gives the expanded uncertainty stated by the source.

Conditions: Transpiration method

Cn1c(=O)c2c(ncn2C)n(C)c1=O [caffeine]
Conditions	vapor or sublimation pressure [kPa]
366.2 K, Crystal 2	0.00017 ± 1e-05
373.3 K, Crystal 2	0.00033 ± 2e-05
379.9 K, Crystal 2	0.00055 ± 3e-05
383.9 K, Crystal 2	0.00077 ± 4e-05
386.9 K, Crystal 2	0.00106 ± 5e-05
389.8 K, Crystal 2	0.00128 ± 6e-05
395.9 K, Crystal 2	0.00223 ± 0.00011
400.9 K, Crystal 2	0.00338 ± 0.00017
405 K, Crystal 2	0.00441 ± 0.00022
406 K, Crystal 2	0.00525 ± 0.00026
408 K, Crystal 2	0.00577 ± 0.00029
410.1 K, Crystal 2	0.00693 ± 0.00035
420.2 K, Crystal 1	0.01448 ± 0.00072
424.9 K, Crystal 1	0.02064 ± 0.001
430.1 K, Crystal 1	0.02868 ± 0.0014
434.5 K, Crystal 1	0.03685 ± 0.0018
